In patent US20200163984A1, “USE OF ISOVALERYL SPIRAMYCIN I, II AND/OR III IN MANUFACTURING MEDICAMENT FOR TREATING AND/OR PREVENTING TUMOR, AND MEDICAMENT” (SHENYANG FUYANG PHARMACEUTICAL TECHNOLOGY CO., LTD., priority 2017, published 2020):
Like-named read-outs stand apart in the source and are kept apart here.

What was measured:
[1] = tested on: transplanted tumor of mouse Lewis lung cancer; test: Transplanted tumor of mouse Lewis lung cancer; settings: for Tumor Volume (mm3) (d 1) / Tumor Volume (mm3) (d30) / Relative Tumor Proliferation Rate (T/C) / Relative Tumor Volume (RTV): title prints KM mouse H22 cells; for Tumor Volume (mm3) (d30): d 30; for Body Weight (g) (d1) / Body Weight (g) (d 15): mouse, in vivo
Protocol: Lewis lung cancer cells were cultured in a RPMI 1640 culture medium containing 10% fetal bovine serum at 37° C. in a 5% CO2 incubator. The cells in the logarithmic growth phase were subjected to trypsinization with 0.25% trypsin, then the cells were collected to be centrifugated to remove the obtained supernatant, then were washed twice with sterile normal saline. […] The Lewis cells were adjusted to 1×10^7/mL in concentration and stored in ice water. 75% ethanol was used to disinfect the skin under the right armpits of the mice, and each C57BL/6 mouse was soon inoculated subcutaneously with 0.2 ml of the cells at its right armpit.
In the Lewis lung cancer model, the mice inoculated with the tumor were randomly divided into groups with 10 mice in each group the next day of inoculation. The groups included: a model control group, a positive drug cyclophosphamide control group (CTX, 30 mg/kg), isovaleryl spiramycin I groups with doses of 13, 26 and 52 mg/kg; isovaleryl spiramycin II groups with doses of 13, 26 and 52 mg/kg; isovaleryl spiramycin III groups with doses of 13, 26 and 52 mg/kg. Each group was continuously administered intragastrically for 15 days with a dose of 20 ml/kg.
The tumor-bearing mice were weighed and sacrificed the next day after the last administration. The subcutaneous tumors were dissected and weighed. The average tumor weight of each group is calculated, and the tumor inhibition rate is calculated.
Tumor inhibition rate=(1−T/C)×100%
T: average tumor weight of the drug-administered group; C: average tumor weight of the blank control group.

[2] = tested on: transplanted tumor of human lymphoma cell U937; test: U937 transplanted tumor in nude mice; settings: for Tumor Volume (mm3) (d 1): d1
Protocol: (§1) U937 cells in a logarithmic growth phase were taken and subjected to a trypan blue exclusion experiment showing that the cell viability was more than 95%, then the cells were subjected to trypsinization, centrifugation, and supernatant removal. Then cell concentration was adjusted to 1×10^7/ml with matrigel, then each nude mouse was inoculated subcutaneously with 0.2 ml of cells at its right armpit and recorded as the first day of inoculation. When the tumor grows to be greater than or equal to 100 mm^3, the mice were randomly divided into 11 groups with 6 mice in each group: a model group, a cyclophosphamide group, isovaleryl spiramycin I groups with doses of 25, 50 and 100 mg/kg, isovaleryl spiramycin II groups with doses of 25, 50 and 100 mg/kg, and isovaleryl spiramycin III groups with doses of 25, 50 and 100 mg/kg. Each group was continuously administered intragastrically for 30 days with a dose of 20 ml/kg. The mice were sacrificed the next day after drug withdrawal and the indicators were tested. The long diameter and short diameter of the tumor, and the body weight of each mouse were recorded every 3 days from drug administration to nude mouse sacrifice.
(§2) The body weight of the nude mice and the long diameter (a) and short diameter (b) of the transplanted tumor were measured every 3 days, and the tumor volume (v), relative tumor volume (RTV) and relative tumor proliferation rate (T/C) are calculated respectively according to the following formulas, wherein V=a×b^2/2; RTV=V/V0 (V0 is the tumor volume before administration, V is the tumor volume before sacrifice), and T/C (%)=treatment group RTV/model control group RTV×100%.
(§3) Each mouse was weighed and sacrificed. After the tumor was completely stripped off from the body of the mouse, the non-tumor tissues such as blood stains and fat were removed to weigh the tumor and calculate the tumor growth inhibition rate. The average tumor weight of each group of mice is used as an indicator of efficacy. Tumor growth inhibition rate (%)=(1−the average tumor weight of the treatment group/the average tumor weight of the model group)×100%.

[3] = tested on: transplanted tumor of human non-small cell lung cancer cell H1299
Protocol: as §1, with “Then” for “U937 cells in a logarithmic growth phase were taken and subjected to a trypan blue exclusion experiment showing that the cell viability was more than 95%, then the cells were subjected to trypsinization, centrifugation, and supernatant removal. Then”, “group:” for “group: a model group, a cyclophosphamide group,”
as §2, §3

[4] = U937, high dose (100 mg/kg in method) i.g. 30 days
[5] = U937, low dose (25 mg/kg in method) i.g. 30 days
[6] = U937, medium dose (50 mg/kg in method) i.g. 30 days
[7] = H1299, 25 mg/kg (low dose) i.g. 30 days
[8] = H1299, 50 mg/kg (medium dose) i.g. 30 days
[9] = H1299, 100 mg/kg (high dose) i.g. 30 days

COC1C(OC(C)=O)CC(=O)OC(C)CC=CC=CC(OC2CCC(N(C)C)C(C)O2)C(C)CC(CC=O)C1OC1OC(C)C(OC2CC(C)(O)C(OC(=O)CC(C)C)C(C)O2)C(N(C)C)C1O (centres unmarked) [Isovaleryl spiramycin II, isovaleryl spiramycin II]
growth of Lewis lung cancer in mice ([1]; 13, 26 and 52 mg/kg i.g. 15 days): significantly inhibit
Tumor Volume (mm3) (d 1) ([1]; dose 12.5 mg/kg): 104.18 ± 19.49 mm3
Tumor Volume (mm3) (d30) ([1]; dose 12.5 mg/kg): 1304.48 ± 379.51 mm3
Relative Tumor Proliferation Rate (T/C) ([1]; dose 12.5 mg/kg): 80.51
Relative Tumor Volume (RTV) ([1]; dose 12.5 mg/kg): 12.89 ± 4.69
Inhibition Rate (%) ([1]; dose 13 mg/kg): 38.67%
Tumor Weight ([1]; dose 13 mg/kg): 0.98 ± 0.37 g
Tumor Volume (mm3) (d 1) ([1]; dose 25 mg/kg): 103.63 ± 19.46 mm3
Tumor Volume (mm3) (d30) ([1]; dose 25 mg/kg): 1119.26 ± 338.67 mm3
Relative Tumor Proliferation Rate (T/C) ([1]; dose 25 mg/kg): 68.97
Relative Tumor Volume (RTV) ([1]; dose 25 mg/kg): 11.04 ± 4.07
Inhibition Rate (%) ([1]; dose 26 mg/kg): 44.26%
Tumor Weight ([1]; dose 26 mg/kg): 0.89 ± 0.18 g
Tumor Volume (mm3) (d 1) ([1]; dose 50 mg/kg): 103.38 ± 18.03 mm3
Tumor Volume (mm3) (d30) ([1]; dose 50 mg/kg): 798.42 ± 189.19 mm3
Relative Tumor Proliferation Rate (T/C) ([1]; dose 50 mg/kg): 48.76
Relative Tumor Volume (RTV) ([1]; dose 50 mg/kg): 7.81 ± 1.76
Inhibition Rate (%) ([1]; dose 52 mg/kg): 56.34%
Tumor Weight ([1]; dose 52 mg/kg): 0.70 ± 0.21 g
Body Weight (g) (d1) ([1]; 13 mg/kg): 20.33 ± 0.64 g
Body Weight (g) (d 15) ([1]; 13 mg/kg): 22.17 ± 1.74 g
Body Weight (g) (d1) ([1]; 26 mg/kg): 19.62 ± 1.43 g
Body Weight (g) (d 15) ([1]; 26 mg/kg): 22.38 ± 0.96 g
Body Weight (g) (d1) ([1]; 52 mg/kg): 20.05 ± 0.67 g
Body Weight (g) (d 15) ([1]; 52 mg/kg): 22.75 ± 0.95 g
Relative Tumor Proliferation Rate (T/C) [2, 4]: 46.09%
tumor growth inhibition rate [2, 4]: 43.63%
Relative Tumor Proliferation Rate (T/C) [2, 5]: 74.19%
tumor growth inhibition rate [2, 5]: 25.61%
tumor volume and relative tumor volume compared with the model group ([2]; U937, low, medium and high doses, P<0.05): significantly lower
Relative Tumor Proliferation Rate (T/C) [2, 6]: 52.10%
tumor growth inhibition rate [2, 6]: 35.44%
Inhibition Rate (%) ([2]; U937 nude mice, 12.5 mg/kg): 25.61%
Relative Tumor Proliferation Rate (T/C) ([2]; U937 nude mice, 12.5 mg/kg): 74.19%
Relative Tumor Volume (RTV) ([2]; U937 nude mice, 12.5 mg/kg): 12.64 ± 5.00
Tumor Weight ([2]; U937 nude mice, 12.5 mg/kg): 1.44 ± 0.64 g
Tumor Volume (mm3) (d 1) ([2]; U937 nude mice, 12.5 mg/kg): 111.58 ± 23.26 mm3
Tumor Volume (mm3) (d30) ([2]; U937 nude mice, 12.5 mg/kg): 1400.95 ± 558.82 mm3
Inhibition Rate (%) ([2]; U937 nude mice, 25 mg/kg): 35.44%
Relative Tumor Proliferation Rate (T/C) ([2]; U937 nude mice, 25 mg/kg): 52.10%
Relative Tumor Volume (RTV) ([2]; U937 nude mice, 25 mg/kg): 8.88 ± 2.64
Tumor Weight ([2]; U937 nude mice, 25 mg/kg): 1.25 ± 0.66 g
Tumor Volume (mm3) (d 1) ([2]; U937 nude mice, 25 mg/kg): 120.21 ± 24.68 mm3
Tumor Volume (mm3) (d30) ([2]; U937 nude mice, 25 mg/kg): 1117.59 ± 565.29 mm3
Inhibition Rate (%) ([2]; U937 nude mice, 50 mg/kg): 43.63%
Relative Tumor Proliferation Rate (T/C) ([2]; U937 nude mice, 50 mg/kg): 46.09%
Relative Tumor Volume (RTV) ([2]; U937 nude mice, 50 mg/kg): 7.85 ± 3.27
Tumor Weight ([2]; U937 nude mice, 50 mg/kg): 1.09 ± 0.62 g
Tumor Volume (mm3) (d 1) ([2]; U937 nude mice, 50 mg/kg): 111.50 ± 7.03 mm3
Tumor Volume (mm3) (d30) ([2]; U937 nude mice, 50 mg/kg): 885.75 ± 418.53 mm3
mouse weight compared with the model group ([2]; mouse, in vivo): no significant changes
Body Weight (g) (d1) ([2]; mouse, in vivo, 12.5 mg/kg): 21.10 ± 0.64 g
Body Weight (g) (d30) ([2]; mouse, in vivo, 12.5 mg/kg): 20.97 ± 0.74 g
Body Weight (g) (d1) ([2]; mouse, in vivo, 25 mg/kg): 21.05 ± 0.30 g
Body Weight (g) (d30) ([2]; mouse, in vivo, 25 mg/kg): 21.03 ± 0.632 g
Body Weight (g) (d1) ([2]; mouse, in vivo, 50 mg/kg): 20.80 ± 0.51 g
Body Weight (g) (d30) ([2]; mouse, in vivo, 50 mg/kg): 21.22 ± 0.51 g
Inhibition Rate (tumor growth inhibition rate) [3, 7]: 17.32%
Relative Tumor Proliferation Rate (T/C) [3, 7]: 83.01%
Relative Tumor Volume (RTV) [3, 7]: 10.64 ± 0.92
Tumor Volume (d 1) [3, 7]: 139.13 ± 12.26 mm3
Tumor Volume (d 30) [3, 7]: 1474.57 ± 104.54 mm3
Tumor Weight [3, 7]: 1.44 ± 0.29 g
Inhibition Rate (tumor growth inhibition rate) [3, 8]: 44.21%
Relative Tumor Proliferation Rate (T/C) [3, 8]: 46.94%
Relative Tumor Volume (RTV) [3, 8]: 6.02 ± 1.07
Tumor Volume (d 1) [3, 8]: 138.94 ± 20.16 mm3
Tumor Volume (d 30) [3, 8]: 821.57 ± 90.36 mm3
Tumor Weight [3, 8]: 0.97 ± 0.16 g
Inhibition Rate (tumor growth inhibition rate) [3, 9]: 58.37%
Relative Tumor Proliferation Rate (T/C) [3, 9]: 36.86%
Relative Tumor Volume (RTV) [3, 9]: 4.72 ± 1.57
Tumor Volume (d 1) [3, 9]: 136.94 ± 14.60 mm3
Tumor Volume (d 30) [3, 9]: 634.05 ± 180.18 mm3
Tumor Weight [3, 9]: 0.73 ± 0.25 g
tumor volume and relative tumor volume compared with the model group ([3]; H1299, low, medium and high doses, P<0.05): significantly lower
mouse weight compared with the model group ([3]; mouse, in vivo): no significant changes
